Several values for one entry are separate records, joined by “and”; a condition that tells them apart may be missing. Equal values may be shown once.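 48-hour exposure; five concentrations; linearly interpolated endpoints. At the GI50, growth is halved. TGI is the concentration that stops growth completely.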
Columns and labels:
Assay in all cases: NCI anticancer screen, dose series, 48 h
A498 renal = system: A498 renal
HT29 colon = system: HT29 colon
KM12 colon = system: KM12 colon
MCF7 breast = system: MCF7 breast
NCI-H522 lung = system: NCI-H522 lung
OVCAR-4 ovarian = system: OVCAR-4 ovarian
SNB-78 CNS = system: SNB-78 CNS
SW-620 colon = system: SW-620 colon
UACC-62 melanoma = system: UACC-62 melanoma
DU-145 prostate = system: DU-145 prostate

Row | Structure (SMILES) | GI50 (A498 renal) [µM] | TGI (A498 renal) | GI50 (HT29 colon) [µM] | TGI (HT29 colon) | GI50 (KM12 colon) [µM] | TGI (KM12 colon) | GI50 (MCF7 breast) [µM] | TGI (MCF7 breast) | TGI (NCI-H522 lung) | TGI (OVCAR-4 ovarian) | GI50 (SNB-78 CNS) [µM] | TGI (SNB-78 CNS) [µM] | GI50 (SW-620 colon) [µM] | TGI (SW-620 colon) | TGI (UACC-62 melanoma) | TGI (DU-145 prostate) [µM] | GI50 (NCI-H522 lung) [µM]
1 | C=C1C(=O)O[C@@H]2OC3(C)CCC4C(C)CCC1C42OO3 (some centres not stated) | 2.57 | 6.56 µM and 10.6 µM | 3.21 | 11.2 µM and 6.73 µM | 2.66 | 9.02 µM and 16.4 µM | 2.2 | 11.5 µM and 15 µM | 3.88 µM and 3.16 µM | 32.4 µM and 26 µM | 3.66 | 19.8 | 3.44 | 13.6 µM and 10.8 µM | 6.86 µM and 5.17 µM | – | –
2 | O=C(NN1C(=O)CSC1c1ccco1)c1ccncc1 (configuration not stated) | – | > 100 µM | – | > 100 µM | – | > 100 µM | – | > 100 µM | > 100 µM | > 100 µM | – | – | – | > 100 µM | > 100 µM | > 100 | –
3 | C/C(=N\NC(=O)c1cccnc1)c1cccc(/C(C)=N/NC(=O)c2cccnc2)n1.CC(=O)[O-].CC(=O)[O-].[Zn+2] | > 100 | > 100 µM | 5.64 | > 100 µM | – | > 100 µM | – | – | > 21.7 µM | > 100 µM | 32 | > 100 | – | > 100 µM | 10.7 µM | – | 0.134
4 | COc1cc(/C=c2/c3ccccc3n3c2cc(-c2ccccc2)[n+]3C)cc(OC)c1OC | – | > 58.3 µM | – | 11.4 µM | – | 3.67 µM | – | 20.6 µM | 9.6 µM | 8.61 µM | – | – | – | 14.5 µM | 10.5 µM | 18.4 | –
5 | C[C@]12CC[C@H](O)CC1=CC[C@@H]1[C@@H]2CC[C@]2(C)c3nc(Cl)ccc3C[C@@H]12 | – | > 100 µM | – | > 100 µM | – | > 100 µM | – | > 100 µM | > 100 µM | > 100 µM | – | – | – | > 100 µM | > 100 µM | > 100 | –
6 | Cc1cc2c(cc1-c1cc3c(cc1C)C(C(C)C)=C(O)C(=O)/C3=C\Nc1c(C)n(C)n(-c3ccccc3)c1=O)/C(=C/Nc1c(C)n(C)n(-c3ccccc3)c1=O)C(=O)C(O)=C2C(C)C | – | > 100 µM | – | > 100 µM | – | > 100 µM | – | > 100 µM | > 100 µM | > 100 µM | – | – | – | > 100 µM | > 100 µM | > 100 | –
7 | O=S(=O)(O)c1cc(Nc2ccnc3ccccc23)c2c(S(=O)(=O)O)cc(S(=O)(=O)O)cc2c1 | – | > 100 µM | – | > 100 µM | – | > 100 µM | – | > 100 µM | > 100 µM | > 100 µM | – | – | – | > 100 µM | > 100 µM | > 100 | –
8 | CC(C)(C)OC(=O)N1Cc2cc(O)ccc2C[C@H]1C(=O)O | – | > 100 µM | – | > 100 µM | – | > 100 µM | – | > 100 µM | > 100 µM | > 100 µM | – | – | – | > 100 µM | > 100 µM | > 100 | –
9 | S=c1nc2sc3c(c2c(Nc2ccc(Br)cc2)[nH]1)CCN(N1CCc2c(sc4nc(=S)[nH]c(Nc5ccc(Br)cc5)c24)C1)C3 | – | 31.3 µM | – | > 50 µM | – | > 50 µM | – | > 50 µM | 44.5 µM | > 50 µM | – | – | – | > 50 µM | > 50 µM | > 50 | –
10 | COc1ccc2oc(=Nc3ccc(F)cc3)c(C(N)=O)cc2c1 | – | 58.7 µM | – | > 100 µM | – | > 100 µM | – | > 100 µM | > 100 µM | > 100 µM | – | – | – | > 100 µM | > 100 µM | > 100 | –
11 | Clc1cc(OCC23CC4CC(CC(C4)C2)C3)nc(OCC23CC4CC(CC(C4)C2)C3)n1 | – | > 100 µM | – | > 100 µM | – | > 100 µM | – | > 100 µM | > 100 µM | > 100 µM | – | – | – | > 100 µM | > 100 µM | > 100 | –
12 | O=C(CCc1ccc(O)c(O)c1)NCCc1ccc(O)c(O)c1 | – | > 100 µM | – | > 100 µM | – | > 100 µM | – | 45.4 µM | > 100 µM | 33.7 µM | – | – | – | > 100 µM | > 100 µM | > 100 | –
13 | COc1ccc2c(c1)CC1(O)COc3cc(OC)ccc3C1O2 (configuration not stated) | – | > 100 µM | – | > 100 µM | – | > 100 µM | – | > 100 µM | > 100 µM | > 100 µM | – | – | – | > 100 µM | > 100 µM | > 100 | –
14 | COC(=O)[C@@]12OC[C@]34C([C@@H](O)C1O)[C@@]1(C)CC(=O)C(O)=C(C)C1C[C@H]3OC(=O)[C@H](OC(=O)/C=C(/c1ccccc1)C(F)(F)F)[C@H]42 (some centres not stated) | – | 8.45 µM | – | 15 µM | – | > 25 µM | – | – | 13.7 µM | > 25 µM | – | > 25 | – | – | 7.31 µM | – | –
15 | N#CCOc1cccc(C2(N3CC=CCC3)CCCCC2)c1 | – | > 100 µM | – | > 100 µM | – | > 100 µM | – | > 100 µM | > 100 µM | > 100 µM | – | – | – | > 100 µM | > 100 µM | > 100 | –

Reference: PubChem BioAssay (NCI)
